Experimental data taken from paper PMC11085208, “Cyclometalated and NNN Terpyridine Ruthenium Photocatalysts and Their Cytotoxic Activity” (Molecules, 2024).
Several values for one entry are separate records, joined by “and”; a condition that tells them apart may be missing. Identical values can stand only once. Entries after “also recorded” stand apart in the source; their conditions may differ.

Columns and labels:
[1] = system: SW1736 cells; experiment: MTT cell viability assay, SW1736 cells; format: cell-based, human; conditions: for ED50 SW1736: MTT test, 72 h, mean ± SD
Description: (§1) Anaplastic thyroid cancer (ATC), while rare, remains one of the deadliest cancers known, showing a median overall survival of 3 months. […] Several therapeutic strategies were thus developed, ranging from more classical methods such as inhibition of cyclin-dependent kinases, to more innovative ones including the use of epigenetic drugs. However, so far, all efforts made in the search for new molecules that can counteract the very high mortality of ATC have often been thwarted by the relative ease with which cancer cells are able to gain drug resistance. For these reasons, the development of new molecules that can increase ATC treatment options is crucial in an effort to extend the life expectancy. A preliminary assessment of the effects of the compounds under consideration involved studying their effectiveness in terms of cell viability. In order to evaluate the antitumor efficacy of ruthenium compounds, they were administered to ATC cells (SW1736 and 8505C) and to a non-tumorigenic thyroid cell line (Nthy-ori 3-1) at increasing doses, and an MTT assay was performed. Once the effects in terms of cell viability were observed, the effective dose 50 (ED50) was calculated by interpolation of the scatter plot curve (dose/effect). The two lines of ATC were similarly sensitive to each of the compounds tested, with the ED50 spanning from 0.3 to 8 µM, calculated at a 72 h time point (Table 2).
(§2) In this study, we used two different human anaplastic thyroid cancer cell lines (SW1736 and 8505C) and a non-tumorigenic thyroid cell line (Nthy-ori 3-1) that were grown as previously described. All cell lines have been validated by short tandem repeat and tested for being mycoplasma-free. Cells were grown in RPMI 1640 medium (EuroClone, Milan, Italy) supplemented with 10% fetal bovine serum (Gibco Invitrogen, Milan, Italy), 2 mM L-glutamine (EuroClone, Milan, Italy), and […] gentamicin (Gibco Invitrogen, Milan, Italy). Cells were maintained in a humidified incubator (5% CO2, 37 °C).
(§3) In order to test cell viability, we applied the methylthiazolyldiphenyl-tetrazolium bromide (MTT) assay as previously described. SW1736, 8505C and Nthy-ori 3-1cells (3000 cells/well) were plated onto 96-well plates in 200 μL medium/well and were allowed to attach to the plate for 24 h (t0). Plates were then treated either with DMSO or with each of the different compounds at different concentrations for 72 h. Then, 4 mg/mL MTT (Merck, Darmstadt, Germany) was added to the cell medium, and cells were cultivated for another 4 h in the incubator. The supernatant was removed, 100 μL/well of DMSO (Merck, Darmstadt, Germany) was added, and the absorbance at 570 nm was measured. All experiments were run sixfold and cell viability was expressed as a fold change compared to control. ED50 was calculated by interpolation of the scatter plot obtained by crossing each dose with its own observed effect.

[2] = system: Nthy-ori 3-1 cells; experiment: MTT cell viability assay, non-tumorigenic Nthy-ori 3-1 cells; format: cell-based, human; conditions: MTT test, 72 h, nontumorigenic thyroid cells, mean ± SD
Description: as §1, §2, §3

[3] = system: 8505C cells; experiment: MTT cell viability assay, 8505C cells; format: cell-based, human; conditions: MTT test, 72 h, mean ± SD
Description: as §1, §2, §3

[4] = system: anaplastic thyroid cancer 8505C and SW1736 cell lines; experiment: MTT cell viability assay, ATC cell lines taken together; format: cell-based; conditions: 72 h
Description: as §1
In this study, we used two different human anaplastic thyroid cancer cell lines (SW1736 and 8505C) and a non-tumorigenic thyroid cell line (Nthy-ori 3-1) that were grown as previously described. […]
In order to test cell viability, we applied the methylthiazolyldiphenyl-tetrazolium bromide (MTT) assay as previously described. […] The supernatant was removed, 100 μL/well of DMSO (Merck, Darmstadt, Germany) was added, and the absorbance at 570 nm was measured. All experiments were run sixfold and cell viability was expressed as a fold change compared to control. ED50 was calculated by interpolation of the scatter plot obtained by crossing each dose with its own observed effect.

Row | Compound | ED50 SW1736 [1] | ED50 Nthy-ori 3-1 [2] [µM] | ED50 8505C [3] [µM] | cytotoxicity (in words) [4] | cytotoxicity (ED50) compared to the enantiomer 6 ([1]; ED50 0.31 vs 1.39 µM)
1 | [Ru(η^1-OAc)(NNN-tpy)((R,R)-Skewphos)]OAc [Complex 6] | 1.39 µM and 1.39 ± 0.14 µM | 4.38 ± 0.13 | 1.88 ± 0.21 | – | –
2 | [Ru(η^2-OAc)(NC-tpy)(dppb)] [Complex 1] | 8.53 ± 0.98 µM | 10.59 ± 1.28 | 7.73 ± 1.02 | moderate cytotoxicity | –
3 | N.N.[Cl][Pt][Cl] [Cisplatin, reference compound] | 6.40 ± 1.54 µM | 11.28 ± 0.96 | 5.20 ± 1.82 | – | –
4 | [RuCl(NNN-tpy)((S,S)-Skewphos)]PF6 [reference compound] | 2.63 µM and 2.63 ± 0.14 µM | 7.21 ± 0.74 | 2.25 ± 0.17 | – | –
5 | [Ru(η^2-OAc)(NC-tpy)((S,S)-Skewphos)] [Complex 5] | 2.11 ± 011 µM | 4.18 ± 0.09 | 2.06 ± 0.26 | moderate cytotoxicity | –
6 | [Ru(η^1-OAc)(NNN-tpy)((S,S)-Skewphos)]OAc [Complex 7] | 0.31 µM and 0.31 ± 0.11 µM | 4.85 ± 0.17 | 0.75 ± 0.09 | – | four times lower; also recorded: four times higher
7 | [RuCl(NNN-tpy)((R,R)-Skewphos)]Cl [reference compound] | 3.36 ± 0.42 µM | 6.91 ± 0.62 | 4.57 ± 0.53 | – | –
8 | [Ru(η^2-OAc)(NC-tpy)((R,R)-Skewphos)] [Complex 4] | 2.18 ± 0.16 µM | 3.88 ± 0.31 | 1.95 ± 0.23 | moderate cytotoxicity | –
